Experiments:
Format in all cases: in vivo
[1] = system: Surinam grass (Brachiaria decumbens); test: Test B pre-/postemergence plant response
From the text: (§1) Seeds of plant species selected from blackgrass (Alopecurus myosuroides), downy bromegrass (Bromus tectorum), green foxtail (Setaria viridis), Italian ryegrass (Lolium multiflorum), wheat (Triticum aestivum), wild oat (Avena fatua), deadnettle (henbit deadnettle, Lamium amplexicaule), galium (catchweed bedstraw, Galium aparine), bermudagrass (Cynodon dactylon), Surinam grass (Brachiaria decumbens), cocklebur (Xanthium strumarium), corn (Zea mays), large crabgrass (Digitaria sanguinalis), woolly cupgrass (Eriochloa villosa), giant foxtail (Setaria faberii), goosegrass (Eleusine indica), johnsongrass (Sorghum halepense), kochia (Kochia scoparia), lambsquarters (Chenopodium album), morningglory (Ipomoea coccinea), nightshade (eastern black nightshade, Solanum ptycanthum), yellow nutsedge (Cyperus esculentus), pigweed (Amaranthus retroflexus), ragweed (common ragweed, Ambrosia elatior), Russian thistle (Salsola kali), soybean (Glycine max), sunflower (common oilseed sunflower, Helianthus annuus) and velvetleaf (Abutilon theophrasti) were planted into a blend of loam soil and sand and treated preemergence with test compounds formulated in a non-phytotoxic solvent mixture which included a surfactant.
(§2) At the same time, plants selected from these crop and weed species and also winter barley (Hordeum vulgare), canarygrass (Phalaris minor), chickweed (Stellaria media) and windgrass (Apera spica-venti) were planted in pots containing Redi-Earth® planting medium (Scotts Company, 14111 Scottslawn Road, Marysville, Ohio 43041) comprising spaghnum peat moss, vermiculite, wetting agent and starter nutrients and treated with postemergence applications of some of the test chemicals formulated in the same manner. Plants ranged in height from 2 to 18 cm (1- to 4-leaf stage) for postemergence treatments.
(§3) Treated plants and controls were maintained in a greenhouse for 13 to 15 days, after which time all treated plants were visually evaluated and compared to controls. Plant response ratings, summarized in Table B, are based on a scale of 0 to 100 where 0 is no effect and 100 is complete control. A dash (-) response means no test result.

[2] = system: bermudagrass (Cynodon dactylon); test: Test B pre-/postemergence plant response
From the text: as §1, §2, §3

[3] = system: downy bromegrass (Bromus tectorum); test: Test B pre-/postemergence plant response
From the text: as §1, §2, §3

[4] = system: lambsquarters (Chenopodium album); test: Test B pre-/postemergence plant response
From the text: as §1, §2, §3

[5] = system: pigweed (Amaranthus retroflexus); test: Test B pre-/postemergence plant response
From the text: as §1, §2, §3

[6] = system: wheat (Triticum aestivum); test: Test B pre-/postemergence plant response
From the text: as §1, §2, §3

[7] = system: woolly cupgrass (Eriochloa villosa); test: Test B pre-/postemergence plant response
From the text: as §1, §2, §3

[8] = system: yellow nutsedge (Cyperus esculentus); test: Test B pre-/postemergence plant response
From the text: as §1, §2, §3

[9] = system: barnyardgrass (Echinochloa crus-galli); test: Test B flooded paddy test; settings: for Plant response rating, Barnyardgrass: Flood (flooded paddy test), 13 to 15 days
In short: (§4)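 Plants were grown to the 2-leaf stage, then pots were flooded to 3 cm above the soil and compounds were applied directly into the paddy water. That depth was held throughout. After 13 to 15 days in a greenhouse, injury was visually rated against controls on a 0–100 scale.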

[10] = system: ducksalad (Heteranthera limosa); test: Test B flooded paddy test; settings: for Plant response rating, Ducksalad: Flood (flooded paddy test), 13 to 15 days
In short: as §4

rice (Oryza sativa) = test: Test B flooded paddy test; settings: for Plant response rating, Rice: Flood (flooded paddy test), 13 to 15 days
In short: as §4

[11] = system: umbrella sedge (Cyperus difformis); test: Test B flooded paddy test; settings: for Plant response rating, Sedge, Umbrella: Flood (flooded paddy test), 13 to 15 days
In short: as §4

[12] = 250 g ai/ha, Preemergence, 0 to 100 scale
[13] = Postemergence, 62 g ai/ha, scale 0 (no effect) to 100 (complete control), 13 to 15 days
[14] = Postemergence, 125 g ai/ha, visual rating after 13 to 15 days, scale 0 (no effect) to 100 (complete control)
[15] = Preemergence, 31 g ai/ha, scale 0 to 100 (0 no effect, 100 complete control)
[16] = Preemergence, 125 g ai/ha, 0 to 100 scale
[17] = Postemergence, 31 g ai/ha, scale 0 to 100 (0 no effect, 100 complete control)
[18] = Postemergence, 250 g ai/ha, scale 0 to 100
[19] = Preemergence, 62 g ai/ha, scale 0 to 100 (0 no effect, 100 complete control)
[20] = 250 g ai/ha, flooded paddy test, visual rating on 0 to 100 scale (0 no effect, 100 complete control) after 13 to 15 days
[21] = 31 g ai/ha, scale of 0 to 100 where 0 is no effect and 100 is complete control
[22] = 62 g ai/ha, scale 0 to 100, 0 is no effect, 100 is complete control
[23] = 125 g ai/ha, scale 0 to 100, 0 is no effect, 100 is complete control

## O=C1CCCC(O)=C1C(=O)c1cnc(-c2ccccc2)n(-c2cccc(Br)c2)c1=O [Compound 38]
[1]; [12]
  Plant response rating, Surinam Grass: 80
[1]; [13]
  Plant response rating, Surinam Grass: 85
[1]; [14]
  Plant response rating, Surinam Grass: 90
[1]; [15]
  Plant response rating, Surinam Grass: 40
[1]; [16]
  Surinam Grass plant response rating: 65
[2]; [12]
  Plant response rating, Bermudagrass: 100
[2]; [17]
  Plant response rating, Bermudagrass: 98
[2]; [13]
  Plant response rating, Bermudagrass: 100
[2]; [14]
  Plant response rating, Bermudagrass: 100
[2]; [18]
  Bermudagrass plant response rating: 100
[2]; [15]
  Plant response rating, Bermudagrass: 98
[2]; [19]
  Plant response rating, Bermudagrass: 100
[2]; [16]
  Bermudagrass plant response rating: 100
[3]; [12]
  Plant response rating, Bromegrass, Downy: 40
[3]; [17]
  Plant response rating, Bromegrass, Downy: 50
[3]; [13]
  Plant response rating, Bromegrass, Downy: 70
[3]; [14]
  Plant response rating, Bromegrass, Downy: 85
[3]; [18]
  Bromegrass, Downy plant response rating: 85
[3]; [15]
  Plant response rating, Bromegrass, Downy: 0
[3]; [19]
  Plant response rating, Bromegrass, Downy: 0
[3]; [16]
  Bromegrass, Downy plant response rating: 5
[4]; [12]
  Plant response rating, Lambsquarters: 100
[4]; [13]
  Plant response rating, Lambsquarters: 95
[4]; [14]
  Plant response rating, Lambsquarters: 100
[4]; [18]
  Lambsquarters plant response rating: 100
[4]; [15]
  Plant response rating, Lambsquarters: 98
[4]; [19]
  Plant response rating, Lambsquarters: 98
[4]; [16]
  Lambsquarters plant response rating: 100
[5]; [12]
  Plant response rating, Pigweed: 100
[5]; [13]
  Plant response rating, Pigweed: 98
[5]; [14]
  Plant response rating, Pigweed: 98
[5]; [15]
  Plant response rating, Pigweed: 100
[5]; [16]
  Pigweed plant response rating: 100
[6]; [12]
  Plant response rating, Wheat: 5
[6]; [13]
  Plant response rating, Wheat: 20
[6]; [14]
  Plant response rating, Wheat: 40
[6]; [15]
  Plant response rating, Wheat: 0
[6]; [16]
  Wheat plant response rating: 0
[7]; [12]
  Plant response rating, Cupgrass, Woolly: 80
[7]; [17]
  Plant response rating, Cupgrass, Woolly: 80
[7]; [13]
  Plant response rating, Cupgrass, Woolly: 90
[7]; [14]
  Plant response rating, Cupgrass, Woolly: 95
[7]; [18]
  Cupgrass, Woolly plant response rating: 100
[7]; [15]
  Plant response rating, Cupgrass, Woolly: 0
[7]; [19]
  Plant response rating, Cupgrass, Woolly: 10
[7]; [16]
  Cupgrass, Woolly plant response rating: 60
[8]; [12]
  Plant response rating, Nutsedge, Yellow: 80
[8]; [13]
  Plant response rating, Nutsedge, Yellow: 0
[8]; [14]
  Plant response rating, Nutsedge, Yellow: 15
[8]; [15]
  Plant response rating, Nutsedge, Yellow: 10
[8]; [16]
  Nutsedge, Yellow plant response rating: 70
[9]; [20]
  Plant response rating, Flood, Barnyardgrass: 0
[9]; [21]
  Plant response rating, Barnyardgrass: 0
[9]; [22]
  Plant response rating, Barnyardgrass: 0
[9]; [23]
  Plant response rating, Barnyardgrass: 0
[10]; [20]
  Plant response rating, Flood, Ducksalad: 65
[10]; [21]
  Plant response rating, Ducksalad: 0
[10]; [22]
  Plant response rating, Ducksalad: 20
[10]; [23]
  Plant response rating, Ducksalad: 60
Rice (Oryza sativa); [20]
  Plant response rating, Flood, Rice: 0
Rice (Oryza sativa); [21]
  Plant response rating, Rice: 0
Rice (Oryza sativa); [22]
  Plant response rating, Rice: 0
Rice (Oryza sativa); [23]
  Plant response rating, Rice: 0
[11]; [20]
  Plant response rating, Flood, Sedge, Umbrella: 40
[11]; [21]
  Plant response rating, Sedge, Umbrella: 0
[11]; [22]
  Plant response rating, Sedge, Umbrella: 0
[11]; [23]
  Plant response rating, Sedge, Umbrella: 30
